This is an account of results in patent US8445428B2, “Plant derived antibiotic peptide rich in glycine” (Uniao Brasiliense de Educacao e Cultura—UBEC, priority 2006, dated 2013).

Common to all, as to format: cell-based
In assay [1] the test system is Staphylococcus aureus. The assay is described as follows: Preliminary bioassays against gram-positive bacteria. The note with it: such as Staphylococcus aureus.
Assay [2] has as its system Klebsiella sp. As to the kind of experiment: Bioassay against bacteria: growth in LB medium, absorbance at 600 nm. To be noted: micromolar concentrations, 37° C. for 4 hours. The protocol:
(§1) The bioassays against bacteria were performed using 1.0 ml of Luria Bertani medium (NaCl 10 g.l^−1, yeast extract 5 g.l^−1 and bactopeptone […]). Two species, namely Klebsiella sp. and Proteus sp., were used, with the protein under test was restricted to micromolar concentrations. The bacteria grew in the LB medium during 16-18 hours at 37° C. before being evaluated with the proteins. Distilled water was used as negative control and chloramphenicol 40 μg.ml^−1 as positive control. Protein from guava seeds was incubated against the bacteria at 37° C. for 4 hours. Bacterial growth was assessed by an absorbance reading at 600 nm at each hour of the experiment. Each experiment was performed in triplicate.

In assay [3] the test system is Proteus sp. The assay is described as above. To be noted: micromolar concentrations, 37° C. for 4 hours. The protocol: as §1

For the sequence “RESPSSRMECYEQAERYGYGGYGGGRYGGGYGSGRGQPVGQGVERSHDDNRNQPR (SEQ ID NO: 1) (RESPSSRMECYEQAERYGYGGYGGGRYGGGYGSGRGQPVGQGVERSHDDNRNQPR; listed as Psidium guajava) [Pg-AMP1, glycine rich anti-microbial peptide of 55 amino acids, about 5 kDa, purified from guava (Psidium guajava) seeds]”, the inhibitory activity result in assay [1] is “did not reveal any inhibitory activity”; in assay [2], 90%; in assay [3], 30%.
